Measurements as given in EP0368175A1, “3S,7S-3-(Morpholinocarbonyl)-5-(2-chlorphenyl)-7,10-dimethyl-3,4-dihydro-2H,7H-cyclopenta[4,5]thieno[3,2-f][1,2,4]triazolo[4,3-a][1,4]diazepine” (BOEHRINGER INGELHEIM KG, priority 1988, dated 1990).
Where two headings read alike, the source gives them in different places.

Molecular target: T1, PAF-Rezeptor (Homo sapiens, UniProt P25105)
T1 construct: endogenous in cells; host or cells: intact human platelets from blood of healthy donors, purified on Sepharose CL-2B
Test: [^3H]PAF receptor binding on vital human platelets
Experimental: [^3H]PAF-Rezeptor-Bindung an vitalen humanen Blutplättchen
Bestimmt wird die konkurrierende Wechselwirkung von Prüfsubstanzen (hier PAF-Antagonisten) mit der bekannten Wechselwirkung des Radioliganden [^3H]PAF zum gleichen Rezeptor.
Die Bindungsstudien wurden an vitalem menschlichen Thrombozyten vorgenommen. Blutproben von gesunden Spendern wurden mit ACD-Puffer verdünnt und zentrifugiert (15 Min., 160 x g). Das blättchenreiche Plasma wird durch Chromatographie an Sepharose CL-2B [Zum Eluieren: HEPES-Puffer, pH 7,4 20° C] gereinigt.
Definierte Mengen [z.B. 800 µl] der Blättchensuspension wurden 90 Min. bei Raumtemperatur inkubiert, d.h. vermischt mit: • a) einer […] [^3H]PAF-Lösung, verdünnt mit Puffer. • b) mit einer 30 p molaren [^3H] PAF-Lösung, die gleichzeitig eine u.-molare (nicht markierte) PAF-Lösung enthält, • c) mit der 30 pmolaren [^3H]PAF-Lösung und den Lösungen der Prüfsubstanzen (unterschiedliche Konzentrationen) • a) Dient zur Ermittlung der totalen Bindung, • b) Dient zur Ermittlung der unspezifischen Bindung.
Die Reaktion wurde durch Vakuumfiltration abgestoppt. Die Filter mit den Blutplättchen werden mit Scintilationsflüssigkeit versetzt und die verbliebene Radioaktivität in einem Counter gemessen. Die spezifische Bindung ergibt sich aus totaler Bindung minus unspezifischer Bindung. Man bestimmt entweder die ICso-Werte (d.h. jene Konzentration der Prüfsubstanz, die 50 % des Radioliganden - hier [^3H] PAF - vom Rezeptor verdrängt), und gibt diese an. Oder errechnet hieraus die Ki-Werte. Dies kann computerunterstützt durch ein Iterationsverfahren der Bindungskurven geschehen. ICso- bzw. Ki-Werte sind ein Maß für die Rezeptoraffinität der Testsubstanz. Kleinere Werte zeigen die höhere Affinität an.

[1] = four separated isomers of Example 9d, read-out: [^3H]PAF-Bindung (Ki)

T1 sequence (P25105 whole entry): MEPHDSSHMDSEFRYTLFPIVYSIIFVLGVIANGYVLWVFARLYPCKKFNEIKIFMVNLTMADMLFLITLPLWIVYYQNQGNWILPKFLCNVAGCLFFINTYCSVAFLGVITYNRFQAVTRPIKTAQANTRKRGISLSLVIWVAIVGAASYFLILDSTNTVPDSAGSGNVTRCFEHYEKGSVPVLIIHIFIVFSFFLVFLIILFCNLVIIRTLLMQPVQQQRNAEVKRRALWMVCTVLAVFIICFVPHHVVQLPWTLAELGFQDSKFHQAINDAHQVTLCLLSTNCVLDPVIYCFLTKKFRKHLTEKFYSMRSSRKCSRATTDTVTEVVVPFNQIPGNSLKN

Molecule | Ki [1] [µM] | also measured
3-(Morpholinocarbonyl)-5-(2-chlorphenyl)-7,10-dimethyl-3,4-dihydro-2H,7H-cyclopenta[4,5,thieno-[3,2-f]-[1.2.4]triazolo[4.3-a] [1,4]diazepin [(-) 9dB] | 0.008 | 
Cc1nnc2n1-c1sc(CCC(=O)N3CCOCC3)cc1C(c1ccccc1Cl)=NC2C (racemic) [Beispiel 1, 2-(Morpholinylcarbonylethyl)-4-(2-chlorphenyl)-6,9-dimethyl-6H-thieno(3,2-f][1,2,4]triazolo[4,3-a][1,4]diazepin] |  | Ki (not stated whether IC50 or Ki, read-out: Affinität zum PAF-Rezeptor): 0.016 µM
Cc1nnc2n1-c1sc(CCC(=O)N3CCOCC3)cc1C(c1ccccc1Cl)=NC2C (single isomer, unassigned) [IB, 2-(Morpholinylcarbonylethyl)-4-(2-chlorphenyl)-6,9-dimethyl-6H-thieno(3,2-f][1,2,4]triazolo[4,3-a][1,4]diazepin] |  | bindet stärker an den PAF-Rezeptor als die (+)-Form (1A) (ratio of binding, (-)-form versus (+)-form of Example 1): 35 mal
Cc1nnc2n1-c1sc3c(c1C(c1ccccc1Cl)=NC2C)CC(C(=O)N1CCOCC1)C3 (single isomer, unassigned; (+)) [(+) 9dA] | 0.4 | 
Cc1nnc2n1-c1sc3c(c1C(c1ccccc1Cl)=NC2C)CC(C(=O)N1CCOCC1)C3 (single isomer, unassigned; (+)) [(+) 9dB] | 3 | 
Cc1nnc2n1-c1sc3c(c1C(c1ccccc1Cl)=NC2C)CC(C(=O)N1CCOCC1)C3 (single isomer, unassigned; (-)) [(-) 9dA] | 0.07 | 
Cc1nnc2n1-c1sc3c(c1C(c1ccccc1Cl)=NC2C)CC(C(=O)N1CCOCC1)C3 (stereo not shown) [Beispiel 9d] |  | Ki (33 : 67 mixture of diastereomers, read-out: [^3H]PAF-Bindung: K): 0.083 µM
